Measured values as given in patent US20040171086A1, “Selective modulation of TLR-mediated biological activity” (3M Innovative Properties Company, priority 2003, published 2004).

What was measured:
[1] = target: T1, TLR6 (Homo sapiens, UniProt Q9Y2C9); assay: IFN-α1-luciferase reporter assay in genetically modified Namalwa cells, TLR6; type: cell-based; conditions: 10 μM IRM, 18 hours
T1 construct: expressed in transfected cells; host or cells: Namalwa (ATCC CRL-1432), pCI-TLR6 vector, G418 selected
T1 sequence (Q9Y2C9 32-796): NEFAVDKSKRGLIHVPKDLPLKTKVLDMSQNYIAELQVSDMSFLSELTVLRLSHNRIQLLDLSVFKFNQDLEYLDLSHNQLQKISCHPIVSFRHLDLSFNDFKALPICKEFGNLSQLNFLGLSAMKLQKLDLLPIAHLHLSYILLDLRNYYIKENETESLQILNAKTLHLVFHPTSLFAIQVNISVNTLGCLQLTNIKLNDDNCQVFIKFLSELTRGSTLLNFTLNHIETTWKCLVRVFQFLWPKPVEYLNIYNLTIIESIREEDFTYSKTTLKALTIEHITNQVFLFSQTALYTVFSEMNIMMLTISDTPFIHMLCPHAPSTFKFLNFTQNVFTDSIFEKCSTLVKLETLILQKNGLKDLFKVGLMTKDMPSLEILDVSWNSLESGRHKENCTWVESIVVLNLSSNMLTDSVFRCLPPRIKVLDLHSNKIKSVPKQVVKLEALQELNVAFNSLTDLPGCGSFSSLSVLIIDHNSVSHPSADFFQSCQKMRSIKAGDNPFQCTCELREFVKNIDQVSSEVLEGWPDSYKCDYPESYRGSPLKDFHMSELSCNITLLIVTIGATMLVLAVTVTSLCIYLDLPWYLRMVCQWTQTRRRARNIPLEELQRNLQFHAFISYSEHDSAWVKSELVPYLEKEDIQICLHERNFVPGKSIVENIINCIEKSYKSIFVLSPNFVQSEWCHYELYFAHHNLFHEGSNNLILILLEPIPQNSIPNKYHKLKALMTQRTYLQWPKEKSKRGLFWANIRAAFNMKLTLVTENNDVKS
Procedure: (§1) Results are shown in Table 6 and are expressed as fold induction of IFN-α1 —induced luciferase signal, again with respect to a vehicle control.
(§2) The assay identified TLR6-selective compounds (i.e., compounds that modulate TLR6-mediated activity, but not TLR7-mediated activity), TLR7-selective compounds (compounds that modulate TLR7-mediated activity, but not TLR6-mediated activity), and compounds that modulate cellular activity through both TLR6 and TLR7.
(§3) Unless otherwise indicated, all incubations were performed at 37° C. with 5% CO2 at 98% humidity.
(§4) Culture medium was prepared from complete RPMI 1640 medium (BioSource International, Inc., Camarillo, Calif.). Fetal bovine serum (Atlas Biologicals, Inc., Ft. Collins, Colo.) was added to a final concentration of 7.5% (vol/vol); L-glutamine (BioSource International, Inc.) was added to 5 mM; and sodium pyruvate (BioSource International, Inc.) was added to 1 mM.
Namalwa cells were grown by incubation in culture medium overnight. Cells were harvested by centrifugation in a tabletop centrifuge (1200 RPM for 5 minutes), and then resuspended in phosphate buffered sucrose to a concentration of 1.3×10^7 cells/mL.
For each transfection, a 750 μL aliquot of the cell suspension was placed in an electroporation cuvette with 4 mm gaps. 10 μg of the pIFN-α1-luc vector and 10 μg of the pCI-TLR6 vector were added to the electroporation cuvette. The cell and vector mixtures were incubated at room temperature for 5 minutes. The cells were electroporated using a BioRad Gene Pulser (BioRad Laboratories, Hercules, Calif.) set to at 500 μF capacitance and […], then incubated at room temperature for 5 minutes.
(§5) The electroporated cells were suspended in 10 mLs of culture medium and incubated overnight. Dead cells and debris were removed after 24 hours using a MACS Dead Cell Removal kit (Miltenyi Biotec, Auburn, Calif.). Cells were resuspended in 10 mL of culture medium and incubated for an additional 24 hours.
(§6) Transfected cells were selected by adding G418 (Promega Corp., Madison, Wis.) to a final concentration of 1 mg/mL and incubating the cells for seven days.
(§7) The selected transfected cells were counted and resuspended to a concentration of 1×10^6 cell per mL in culture medium. 100 μl aliquots of cells were placed in the wells of a white-walled, white-bottomed 96-well plate (Corning, Inc., Corning, N.Y.). 1.0 μL of an IRM compound from Table 1 (prepared at 1 mM in 100% DMSO) was added to some cell aliquots so that the final concentration of IRM compound was 10 μM. As a positive control, some cell aliquots were incubated with Sendai virus instead of IRM compound. As a negative control, some cell aliquots were incubated with DMSO without IRM compound. In all cases, the cells were incubated for 18 hours.
(§8) The plates were equilibrated to room temperature before one volume of reconstituted LucLight Plus (Packard Instruments, Meriden, Conn.) was added to each aliquot of cells. Each well of the plate was read on an LJL Analyst (LJL Biosystems, Inc., Sunnyvale, Calif.) set with a 5 minute dark adapt. Results are shown in Table 6 and are expressed as fold increase of the IFN-αl—induced luciferase signal compared to a DMSO control.

[2] = target: T2, TLR7 (Homo sapiens, UniProt Q9NYK1); assay: IFN-α1-luciferase reporter assay in genetically modified Namalwa cells, TLR7; type: cell-based; parameters: expressed in transfected cells; host or cells: Namalwa (ATCC CRL-1432); conditions: 10 μM IRM, 18 hours
T2 sequence (Q9NYK1 27-1049): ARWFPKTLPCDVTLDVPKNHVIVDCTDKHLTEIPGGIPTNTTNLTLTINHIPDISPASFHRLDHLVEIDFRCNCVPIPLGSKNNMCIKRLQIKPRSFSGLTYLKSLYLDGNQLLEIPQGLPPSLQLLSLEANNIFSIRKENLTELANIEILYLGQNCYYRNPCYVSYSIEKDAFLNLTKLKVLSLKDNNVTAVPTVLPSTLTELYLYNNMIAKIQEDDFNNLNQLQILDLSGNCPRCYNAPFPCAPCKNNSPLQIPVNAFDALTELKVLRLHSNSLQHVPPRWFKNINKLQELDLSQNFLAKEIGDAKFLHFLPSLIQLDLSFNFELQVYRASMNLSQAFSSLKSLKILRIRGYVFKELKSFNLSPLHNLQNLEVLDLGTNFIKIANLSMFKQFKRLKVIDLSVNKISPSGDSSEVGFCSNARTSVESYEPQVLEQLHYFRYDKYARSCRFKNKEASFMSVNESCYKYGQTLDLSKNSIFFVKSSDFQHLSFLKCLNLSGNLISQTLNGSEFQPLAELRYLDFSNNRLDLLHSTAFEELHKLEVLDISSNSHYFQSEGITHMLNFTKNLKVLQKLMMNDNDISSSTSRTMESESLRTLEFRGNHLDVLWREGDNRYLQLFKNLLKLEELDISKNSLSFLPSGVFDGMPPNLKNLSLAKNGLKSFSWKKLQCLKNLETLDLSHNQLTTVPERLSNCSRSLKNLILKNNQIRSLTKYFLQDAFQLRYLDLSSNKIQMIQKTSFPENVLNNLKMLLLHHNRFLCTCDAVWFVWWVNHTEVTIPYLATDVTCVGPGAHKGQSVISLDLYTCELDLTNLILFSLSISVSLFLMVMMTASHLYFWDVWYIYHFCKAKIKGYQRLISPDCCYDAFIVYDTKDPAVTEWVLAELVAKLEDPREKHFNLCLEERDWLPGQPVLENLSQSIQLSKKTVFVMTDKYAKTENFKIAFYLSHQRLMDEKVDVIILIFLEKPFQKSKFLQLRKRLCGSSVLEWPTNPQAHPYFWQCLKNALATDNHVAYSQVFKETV
Procedure: as §1, §2, §3, §4
Namalwa cells were grown by incubation in culture medium overnight. Cells were harvested by centrifugation in a tabletop centrifuge (1200 RPM for 5 minutes), and then resuspended in phosphate buffered sucrose to a concentration of 1.3×10^7 cells/mL. […]
as §5, §6, §7, §8

| Structure (SMILES) | TLR6: fold increase of the IFN-α1-induced luciferase signal compared to a DMSO control [1] [fold increase] | TLR7: fold increase of the IFN-α1-induced luciferase signal compared to a DMSO control [2] [fold increase] |
| --- | --- | --- |
| CCCCc1nc2c(N)nc3cccnc3c2n1CCNC(=O)c1ccc(Br)o1 [IRM23, N^2-[2-(4-amino-2-butyl-1H-imidazo[4,5-c][1,5]naphthyridin-1-yl)ethyl]-5-bromo-2-furamide] | 0.90 | 2.02 |
| Nc1nc2ccccc2c2c1ncn2CCCCNC(=O)c1cccc2ccccc12 [IRM24, N^1-[4-(4-amino-1H-imidazo[4,5-c]quinolin-1-yl)butyl]-1-naphthamide] | 0.00 | 3.38 |
| CN(C)c1cccc(CCCOCCn2cnc3c(N)nc4ccccc4c32)c1 [IRM25, 1-(2-{3-[3-(dimethylamino)phenyl]propoxy}ethyl)-1H-imidazo[4,5-c]quinolin-4-amine] | 0.04 | 2.89 |
| CCOCc1nc2c(N)nc(C)c(C)c2n1CCNS(C)(=O)=O [IRM26, N-{2-[4-amino-2-(ethoxymethyl)-6,7-dimethyl-1H-imidazo[4,5-c]pyridin-1-yl]ethyl}methanesulfonamide] | 1.50 | 2.48 |
| CCCCc1nc2c(N)nc3ccccc3c2s1 [IRM27, 2-butylthiazolo[4,5-c]quinolin-4-amine] | 6.28 | 1.32 |
| Nc1nc2ccccc2c2c1ncn2CCCCNC(=O)c1cnc2ccccc2c1 [IRM28, N^3-[4-(4-amino-1H-imidazo[4,5-c]quinolin-1-yl)butyl]-3-quinolinecarboxamide] | 2.27 | 0.96 |
| Nc1nc2ccccc2c2c1ncn2COCCOc1ccc([N+](=O)[O-])cc1 [IRM29, 1-{[2-(4-nitrophenoxy)ethoxy]methyl}-1H-imidazo[4,5-c]quinolin-4-amine] | 4.57 | 1.32 |
| CCCCc1nc2c(N)nc3ccccc3c2n1CCCCNS(=O)(=O)c1ccc2ccccc2c1 [IRM30, N^2-[4-(4-amino-2-butyl-1H-imidazo[4,5-c]quinolin-1-yl)butyl]-2-naphthalenesulfonamide] | 4.38 | 1.28 |

Other lines, results leading:

| TLR6: fold increase of the IFN-α1-induced luciferase signal compared to a DMSO control [1] [fold increase] | TLR7: fold increase of the IFN-α1-induced luciferase signal compared to a DMSO control [2] [fold increase] | Structure (SMILES) |
| --- | --- | --- |
| 3.40 | 1.63 | Nc1nc2ccccc2c2c1ncn2CCOCc1cc2ccccc2o1 [IRM31, 1-[2-(benzo[b]furan-2-ylmethoxy)ethyl]-1H-imidazo[4,5-c]quinolin-4-amine] |
| 7.47 | 1.77 | CCCCc1nc2c(N)nc3ccccc3c2n1CCCNC(=O)Nc1ccccc1 [IRM32, N-[3-(4-amino-2-butyl-1H-imidazo[4,5-c]quinolin-1-yl)propyl]-N′-phenylurea] |
| 13.12 | 1.99 | Cc1nc(N)c2nc(C)n(CCCCCS(=O)(=O)c3ccccc3)c2c1C [IRM33, 1-(5-benzenesulfonyl-pentyl)-2,6,7-trimethyl-1H-imidazo[4,5-c]pyridin-4-ylamine] |
| 10.80 | 3.37 | Cc1nc2c(N)nc3ccccc3c2n1CC(C)(C)O [IRM34, 4-amino-α,α,2-trimethyl-1H-imidazo[4,5-c]quinoline-1-ethanol] |
| 6.72 | 2.33 | Nc1nc2ccccc2c2c1ncn2CCOCCCc1cccnc1 [IRM35, 1-{2-[3-(3-pyridyl)propoxy]ethyl}-1H-imidazo[4,5-c]quinolin-4-amine] |
| 0.98 | 3.54 | CCCCc1nc2c(N)nc3cccnc3c2n1CCNC(=O)c1ccc(Br)s1 [IRM42, N^2-[2-(4-amino-2-butyl-1H-imidazo[4,5-c][1,5]naphthyridin-1-yl)ethyl]-5-bromo-2-thiophenecarboxamide] |
| 1.07 | 2.17 | Nc1nc2ccccc2c2c1ncn2CCCCCCCCNC(=O)c1ccccc1 [IRM43, N-[8-(4-amino-1H-imidazo[4,5-c]quinolin-1-yl)octyl]benzamide] |
